In patent US20260364073A1, “MAVACAMTEN AND DERIVATIVES THEREOF FOR USE IN TREATING ATRIAL DYSFUNCTION” (MyoKardia, Inc., priority 2022, published 2026):

Key:
[1] = biological target: T1, bovine cardiac synthetic myosin filaments (Bos taurus, UniProt Q9BE39); assay: DRX and SRX ATPase rates in bovine cardiac synthetic myosin filaments; type: biochemical; conditions: role: inhibitor, range of concentrations (FIG. 5), Compound A compared with mavacamten
T1 construct: single-turnover ATPase (DRX/SRX)
T1 sequence (Q9BE39 whole entry): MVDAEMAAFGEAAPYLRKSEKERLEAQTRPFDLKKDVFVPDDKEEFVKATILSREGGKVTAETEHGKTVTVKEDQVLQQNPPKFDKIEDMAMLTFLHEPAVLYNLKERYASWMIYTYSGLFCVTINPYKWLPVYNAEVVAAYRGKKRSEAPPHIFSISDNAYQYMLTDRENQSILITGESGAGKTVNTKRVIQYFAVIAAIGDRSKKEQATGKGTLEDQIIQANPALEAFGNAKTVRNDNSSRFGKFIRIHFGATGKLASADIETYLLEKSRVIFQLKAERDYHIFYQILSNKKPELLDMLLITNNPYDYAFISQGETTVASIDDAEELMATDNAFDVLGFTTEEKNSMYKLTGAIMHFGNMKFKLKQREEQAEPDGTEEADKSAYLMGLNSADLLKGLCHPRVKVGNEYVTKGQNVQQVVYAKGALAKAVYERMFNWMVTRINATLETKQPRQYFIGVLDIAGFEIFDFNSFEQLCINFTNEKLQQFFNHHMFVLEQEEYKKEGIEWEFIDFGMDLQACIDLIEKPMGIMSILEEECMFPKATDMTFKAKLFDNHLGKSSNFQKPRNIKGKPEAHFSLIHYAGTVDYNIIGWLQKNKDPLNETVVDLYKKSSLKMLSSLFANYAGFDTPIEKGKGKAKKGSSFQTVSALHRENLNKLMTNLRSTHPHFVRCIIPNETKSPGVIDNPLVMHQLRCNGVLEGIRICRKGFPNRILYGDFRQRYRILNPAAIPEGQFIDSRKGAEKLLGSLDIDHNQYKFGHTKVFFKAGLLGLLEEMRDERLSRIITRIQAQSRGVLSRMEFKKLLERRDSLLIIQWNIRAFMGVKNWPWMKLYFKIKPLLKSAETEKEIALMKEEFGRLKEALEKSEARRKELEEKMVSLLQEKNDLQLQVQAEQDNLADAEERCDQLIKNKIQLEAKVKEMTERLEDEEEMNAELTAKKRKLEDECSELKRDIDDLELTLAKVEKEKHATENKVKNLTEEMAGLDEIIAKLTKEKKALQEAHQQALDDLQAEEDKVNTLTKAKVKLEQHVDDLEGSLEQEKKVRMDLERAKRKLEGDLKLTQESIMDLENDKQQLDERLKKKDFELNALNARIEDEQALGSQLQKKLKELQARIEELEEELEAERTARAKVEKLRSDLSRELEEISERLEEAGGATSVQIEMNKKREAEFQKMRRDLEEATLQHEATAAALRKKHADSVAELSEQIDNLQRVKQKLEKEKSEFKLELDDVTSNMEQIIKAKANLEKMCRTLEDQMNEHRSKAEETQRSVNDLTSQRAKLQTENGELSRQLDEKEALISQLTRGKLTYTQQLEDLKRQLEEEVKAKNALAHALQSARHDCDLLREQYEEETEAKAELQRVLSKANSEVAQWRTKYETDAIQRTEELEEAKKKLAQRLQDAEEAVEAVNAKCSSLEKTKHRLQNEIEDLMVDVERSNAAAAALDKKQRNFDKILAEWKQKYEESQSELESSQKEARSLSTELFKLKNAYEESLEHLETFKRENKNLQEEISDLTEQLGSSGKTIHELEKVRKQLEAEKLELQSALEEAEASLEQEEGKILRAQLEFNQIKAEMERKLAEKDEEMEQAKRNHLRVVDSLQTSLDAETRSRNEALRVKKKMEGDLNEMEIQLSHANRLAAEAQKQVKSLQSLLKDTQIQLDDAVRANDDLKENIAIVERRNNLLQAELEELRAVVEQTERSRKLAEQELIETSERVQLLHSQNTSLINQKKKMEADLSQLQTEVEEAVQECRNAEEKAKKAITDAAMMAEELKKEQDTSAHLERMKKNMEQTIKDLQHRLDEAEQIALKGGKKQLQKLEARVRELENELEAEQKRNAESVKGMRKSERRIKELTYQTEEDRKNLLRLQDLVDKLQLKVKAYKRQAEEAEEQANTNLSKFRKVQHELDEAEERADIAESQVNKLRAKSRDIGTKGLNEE
T1 sequence (P85100 whole entry partner): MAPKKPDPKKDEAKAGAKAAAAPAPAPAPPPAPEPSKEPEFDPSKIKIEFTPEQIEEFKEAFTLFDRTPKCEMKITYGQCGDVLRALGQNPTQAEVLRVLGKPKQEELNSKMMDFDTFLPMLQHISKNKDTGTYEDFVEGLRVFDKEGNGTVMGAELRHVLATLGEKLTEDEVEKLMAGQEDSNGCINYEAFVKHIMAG
T1 sequence (Q3SZE5 whole entry partner): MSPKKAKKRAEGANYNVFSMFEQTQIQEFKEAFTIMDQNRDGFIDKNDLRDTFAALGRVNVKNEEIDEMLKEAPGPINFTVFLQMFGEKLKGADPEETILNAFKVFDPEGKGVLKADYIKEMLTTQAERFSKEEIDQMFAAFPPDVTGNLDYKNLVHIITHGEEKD

[2] = test system: HCM pigs (heterozygous MYH7 R403Q mutation); assay: Chronic Compound A treatment in mini-pig model of inherited HCM: mortality, cTnT, cardiac MRI; type: in vivo, Yucatan mini-pigs; conditions: chronic treatment PO
From the text: (§1) FIG. 1 is a schematic diagram showing the design for an experiment on the chronic effects of Compound A on HCM and on left atrial and left ventricular geometry and function in a mini-pig model of inherited HCM (“HCM pigs”). Compound A dose is increased over the first 12 weeks of the study to account for weight gain. CMPD A: Compound A. CTRL: control. cMR: cardiac MRI. PV: LV pressure and volume studies (invasive hemodynamics). RNA: LV gene expression studies. HIST: histology. BIO: LV/LA fiber biomechanical studies.
This Example describes an in vivo study that evaluates the chronic effects of Compound A, in a genetic large-animal model of HCM.
(§2) Young (~1 month) cloned Yucatan mini-pigs with a heterozygous MYH7 R403Q mutation (“HCM pigs”) were treated and evaluated as shown in FIG. 1. The pigs were randomly assigned to one of two arms: untreated controls (CTRL, n=29) or daily Compound A (n=22; PO); untreated wild-type pigs (WT) served as […]. The pigs treated with Compound A were divided into two cohorts: A and B. Treated animals received progressively increasing Compound A doses (5, 7.5, 10, and 15 mg/day PO) to account for weight gain. After 14 weeks of treatment, pigs underwent in vivo cardiac MRI (cMR) imaging, including T1 mapping and extracellular volume (ECV) assessments. […]

α-MHC / β-MHC in the LA = assay: LA myosin isoform content (α-MHC to β-MHC conversion) in HCM pigs; type: in vivo, Yucatan mini-pigs; conditions: HCM pigs (FIG. 3), in comparison to untreated HCM pig controls
From the text: as §1
FIG. 3 is a set of graphs showing the effects of Compound A on left atrial (LA) geometry and function in HCM pigs.
as §2

Compound | disordered relaxed state (DRX) ATPase rate (as a fraction of control) [1] | super-relaxed state (SRX) ATPase rate (as a fraction of control) [1] | left atrial remodeling [2] | conversion of α-MHC to β-MHC in the LA (α-MHC / β-MHC in the LA)
CC(C)n1c(=O)cc(N[C@@H](C)c2ccccc2)[nH]c1=O [mavacamten] | similar | similar | – | –
CC(C)n1c(=O)cc(N[C@@H](C)c2cccc(F)c2)[nH]c1=O [Compound A] | similar | similar | prevented left atrial remodeling | prevented the conversion of α-MHC to β-MHC in the LA
